Assay results from patent US7214708B2, “Synthetic discodermolide analogs” (priority 2004, dated 2007).

Key:
[1] = tested on: MCF-7; test: inhibition of proliferation of tumor cell line MCF-7; type: cell-based; conditions: MCF-7 human breast cancer cell line, some results are the average of multiple runs
Description: (§1) The biological activities of compounds I were evaluated by measuring their inhibitory effect on the proliferation of various tumor cell lines. MCF-7, A549, SKOV-3, and CCRF-CEM are human breast cancer, lung cancer, ovary cancer, and leukemia cell lines, respectively. HL-60/MX2 is a leukemia cell line resistant to mitoxantrone. A549 t12 is an A549 subline resistant to paclitaxel. CCRF-CEM/PTX, CCRF-CEM/VBL, and CCRF-CEM/VP16 are CCRF-CEM sublines resistant to paclitaxel, vinblastine, and VP-16 (etoposide), respectively. NCI/ADR (also referred to as NCI/ADR-Res) is a multi-drug resistant human breast cancer cell line.
(§2) The biological activity of compound II-A was evaluated by measuring its inhibitory effect on the proliferation of various tumor cell lines. (The characteristics of the various cell lines employed was previously described hereinabove.)
(§3) The biological activity of compounds III was evaluated by measuring their inhibitory effect on the proliferation of various tumor cell lines. The characteristics of the cells lines used has been described hereinabove.
(§4) The biological activity of compounds IV was evaluated by measuring their inhibitory effect on the proliferation of various tumor cell lines. The characteristics of the cell lines used has been discussed hereinabove.

[2] = tested on: NCI/ADR; test: inhibition of proliferation of tumor cell line NCI/ADR; type: cell-based; conditions: NCI/ADR (NCI/ADR-Res) multi-drug resistant human breast cancer cell line; some results are the average of multiple runs
Description: as §1, §2, §3, §4

[3] = tested on: A549; test: inhibition of proliferation of tumor cell line A549; type: cell-based; conditions: A549 human lung cancer cell line; some results are the average of multiple runs
Description: as §1, §2, §3, §4

[4] = tested on: SKOV-3; test: inhibition of proliferation of tumor cell line SKOV-3; type: cell-based; conditions: SKOV-3 human ovary cancer cell line, some results are the average of multiple runs
Description: as §1, §2, §3

[5] = tested on: HL-60/MX2; test: inhibition of proliferation of tumor cell line HL-60/MX2; type: cell-based; conditions: HL-60/MX2 leukemia cell line resistant to mitoxantrone, some results are the average of multiple runs
Description: as §1, §2, §4

[6] = tested on: A549 t12; test: inhibition of proliferation of tumor cell line A549 t12; type: cell-based, human; conditions: A549 t12, A549 subline resistant to paclitaxel, some results are the average of multiple runs
Description: as §1, §2, §4

[7] = tested on: CCRF-CEM; test: inhibition of proliferation of tumor cell line CCRF-CEM; type: cell-based; conditions: CCRF-CEM human leukemia cell line; some results are the average of multiple runs
Description: as §1, §2, §4

[8] = tested on: CCRF-CEM/PTX; test: inhibition of proliferation of tumor cell line CCRF-CEM/PTX; type: cell-based, human; conditions: CCRF-CEM subline resistant to paclitaxel, some results are the average of multiple runs
Description: as §1, §2, §4

[9] = tested on: CCRF-CEM/VBL; test: inhibition of proliferation of tumor cell line CCRF-CEM/VBL; type: cell-based, human; conditions: CCRF-CEM subline resistant to vinblastine, some results are the average of multiple runs
Description: as §1, §2, §4

[10] = tested on: CCFR-CEM/VP16; test: inhibition of proliferation of tumor cell line CCRF-CEM/VP16; type: cell-based, human; conditions: CCRF-CEM subline resistant to VP-16 (etoposide), some results are the average of multiple runs
Description: as §1, §2, §4

| Molecule | IC50 ([1]; MCF7) | IC50 [2] | IC50 [3] | IC50 ([4]; SK-OV-3) | IC50 [1] | IC50 [4] | IC50 [5] | IC50 [6] | IC50 [7] | IC50 [8] | IC50 [9] | IC50 [10] | IC50 ([6]; Homo sapiens) | IC50 ([5]; Homo sapiens, HL60/MX2) | IC50 ([8]; Homo sapiens) | IC50 ([9]; Homo sapiens) | IC50 ([10]; Homo sapiens) |
| --- | --- | --- | --- | --- | --- | --- | --- | --- | --- | --- | --- | --- | --- | --- | --- | --- | --- |
| CC/C=C\[C@H](C)[C@H](OC(N)=O)[C@@H](C)[C@H](O)[C@@H](C)C/C(C)=C\[C@H](C)[C@@H](O)[C@@H](C)/C=C\[C@@H](O)C[C@H]1CCC(=O)O1 [III-B] | 6.4 nM | 730 nM | 46 nM | 15 nM |  |  |  |  |  |  |  |  |  |  |  |  |  |
| C=C/C=C\[C@H](C)[C@H](OC(N)=O)[C@@H](C)[C@H](O)[C@@H](C)C/C(C)=C\[C@H](C)[C@@H](O)[C@@H](C)/C=C\[C@@H](O)C[C@H]1CCC(=O)O1 [III-A] | 2.9 nM | 350 nM | 4.9 nM | 14 nM |  |  |  |  |  |  |  |  |  |  |  |  |  |
| (+)-Discodermolide [reference compound] |  | 247 nM | 24.4 nM |  | 14.1 nM | 31.7 nM | 150 nM | 26.7 nM | 14.8 nM | 92.8 nM | 158 nM | 53 nM |  |  |  |  |  |
| C=C/C=C\[C@H](C)[C@H](OC(N)=O)[C@@H](C)[C@H](O)[C@@H](C)C/C(C)=C\[C@H](C)[C@@H](O)[C@@H](C)/C=C\[C@H](C[C@@H]1OC(=O)[C@H](C)[C@@H](O)[C@H]1C)OCOCCOC [I-B] | 5.5 nM | 140 nM | 6.7 nM |  |  |  |  |  |  |  |  |  | 5.8 nM |  |  |  |  |
| C=C/C=C\[C@H](C)[C@H](OC(N)=O)[C@@H](C)[C@H](O)[C@@H](C)C/C(C)=C\[C@H](C)[C@@H](O)[C@@H](C)/C=C(/C)[C@@H](O)C[C@@H]1OC(=O)[C@H](C)[C@@H](O)[C@H]1C [II-A, 8-methyldiscodermolide] | 7.7 nM | 610 nM | 12 nM | 29 nM |  |  |  |  | 5.6 nM |  |  |  | 31 nM | 11 nM | 42.3 nM | 152 nM | 9 nM |
| CC/C=C\[C@H](C)[C@H](OC(N)=O)[C@@H](C)[C@H](O)[C@@H](C)C/C(C)=C\[C@H](C)[C@@H](O)[C@@H](C)/C=C\[C@@H](O)C[C@@H]1OC(=O)[C@H](C)[C@@H](OC)[C@H]1C [IV-A] | 5.8 nM | 140 nM | 11 nM |  |  |  |  |  | 8.6 nM |  |  |  | 50 nM | 12 nM | 65 nM | 209 nM | 12 nM |
| CC/C=C\[C@H](C)[C@H](OC(N)=O)[C@@H](C)[C@H](O)[C@@H](C)C/C(C)=C\[C@H](C)[C@@H](O)[C@@H](C)/C=C\[C@@H](O)C[C@@H]1OC(=O)[C@H](C)C[C@H]1C [IV-B] | 3.8 nM | 250 nM | 6.5 nM |  |  |  |  |  | 4.4 nM |  |  |  | 12 nM | 4.1 nM | 79 nM | 416 nM | 8.4 nM |
